Earlier results in patent US20090197815A1, “COMBINATION OF SOMATOSTATIN-ANALOGS WITH DOPAMINE- OR GROWTH HORMONE RECEPTOR ANTAGONIST” (priority 2006, published 2009).
Where two headings read alike, the source gives them in different places.

Key:
patients with acromegaly [1] = system: patients with acromegaly
acromegalic patients [2] = details: cabergoline 1-3.5 mg/week added to depot SSA at maximum registered dose, 19 patients
patients with acromegaly [3] = details: daily subcutaneous monotherapy
acromegalic patients [4] = system: acromegalic patients

Compound: C[C@@H](O)[C@@H]1NC(=O)[C@H](CCCCN)NC(=O)[C@@H](Cc2c[nH]c3ccccc23)NC(=O)[C@H](Cc2ccccc2)NC(=O)[C@@H](NC(=O)[C@H](N)Cc2ccccc2)CSSC[C@@H](C(=O)N[C@H](CO)[C@@H](C)O)NC1=O [Sandostatin®, octreotide acetate]
- normalization of IGF-I (patients with acromegaly [1]): approximately 60 % of cases
- patients with GH levels decreasing to <2.0 μg/L (patients with acromegaly [1]): 40 % of patients
- patients with GH levels decreasing to <5.0 μg/L (patients with acromegaly [1]): 65 % of patients

Compound: C=CCN1C[C@H](C(=O)N(CCCN(C)C)C(=O)NCC)C[C@@H]2c3cccc4[nH]cc(c34)C[C@H]21 [cabergoline]
- normalization of IGF1 (acromegalic patients [2]): 42 % patients
- normalized both biochemical markers (GH<2.5 μg/L and IGF1 for age) (acromegalic patients [2]): 16 % of patients
- reduction of GH<2.5 μg/L (acromegalic patients [2]): 21 % of patients

Compound: pegvisomant
- change of GH concentrations during therapy (patients with acromegaly [3]): increased by nearly twofold
- normalization of circulating IGF-I levels (patients with acromegaly [3]): 80 to 90 % of patients
- tolerability (patients with acromegaly [3]): good tolerability
- IGF-I concentration normal (acromegalic patients [4]; after 18 weeks, at least 50 mg pegvisomant per week, with monthly 30 mg Sandostatin LAR or 120 mg lanreotide Autogel): 81 % of patients
- IGF-I concentration normal (acromegalic patients [4]; at week 42, weekly pegvisomant with monthly 30 mg Sandostatin LAR or 120 mg lanreotide Autogel): 95 % of patients
- median weekly dose needed to return IGF-I concentration to normal (acromegalic patients [4]; combined with monthly long-acting SSA, range 40-80 mg): 60 mg
- patients with mild non-progressive increases in liver transaminases (acromegalic patients [4]; from week 12, independent from pegvisomant dose, 10 patients, combined with long-acting SSA): 38%
